Series [1] deals with HCV. The series can be described thus: Influence of CD36 level on the anti-HCV activity of SSO. It is filed as cell-based, hepatitis C virus. Particulars: 5 μM SSO for 2 hrs, HCV 150 IU/cell, RNA in 96 hrs, P < 0.01. The protocol: Intracellular HCV RNA was analyzed with qRT-PCR in 96 hrs.
Series [2] has as its target T1, SR-BI (Homo sapiens, UniProt Q8WTV0).
T1 construct: made in house; host or cells: 293T/17 cells
T1 sequence (Q8WTV0 1-509 isoform Q8WTV0-2): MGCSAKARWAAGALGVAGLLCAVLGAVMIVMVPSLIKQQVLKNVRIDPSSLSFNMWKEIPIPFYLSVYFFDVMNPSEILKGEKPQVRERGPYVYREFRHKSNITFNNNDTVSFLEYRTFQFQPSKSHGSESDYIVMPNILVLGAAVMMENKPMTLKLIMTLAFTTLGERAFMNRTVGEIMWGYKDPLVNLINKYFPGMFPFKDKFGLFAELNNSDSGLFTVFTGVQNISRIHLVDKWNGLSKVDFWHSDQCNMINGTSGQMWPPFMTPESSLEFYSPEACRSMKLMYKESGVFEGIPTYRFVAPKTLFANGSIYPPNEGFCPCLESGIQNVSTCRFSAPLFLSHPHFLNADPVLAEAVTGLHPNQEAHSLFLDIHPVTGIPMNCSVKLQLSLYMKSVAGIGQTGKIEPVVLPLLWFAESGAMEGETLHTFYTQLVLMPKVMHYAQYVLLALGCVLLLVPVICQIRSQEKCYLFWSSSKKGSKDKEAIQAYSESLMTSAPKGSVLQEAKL
The experiment in a line: BIAcore surface plasmon resonance binding to SR-BI-HA. Particulars: immobilised SR-BI-HA. As for the experimental part:
The 293T/17 cells were transfected with CD36-HA or SR-BI-HA plasmid using HD transfection reagent. At 48 hrs post transfection, cells were harvested and protein CD36-HA or SR-BI-HA was purified with Pierce Anti-HA Agarose (Thermo Scientific) and then desalinated with Zeba Spin Desaling Columns (Thermo Scientific). The concentration of purified proteins was quantified with Pierce BCA Protein Assay Kit (Thermo Scientific). Then, surface plasmon resonance experiments were performed on a BIAcore biosensor system (BIAcore T100). In brief, the carboxymethylated surface of series S sensor chip CM5 (GE Healthcare Bio-Sciences) was first activated with a mixture of N-hydroxysuccinimide (NHS) and 1-ethyl-3-(3- dimethylaminopropyl) carbodiimide hydro-chloride (EDC) (BIAcore AB). Subsequently, 200 μL of purified CD36-HA or SR-BI-HA at a concentration of 80 μg/mL was injected into the flow cell (FC2) for immobilization on the sensor surface. […] Compound VX-950 was used as negative control. Data were evaluated using the software BIAcore T100 Evaluation (BIAcore AB).
(Surface plasmon resonance follows binding to a sensor surface in real time, without labels.)

The nature of series [3]: Cytotoxicity in Vero cells. Type of series: cell-based. The settings on record: African green monkey.
A short description of series [4]: Cytotoxicity in HepG2.2.15 cells. Type of series: cell-based. Particulars: human, HBV test.
Series [5] concerns HCV particle. The experiment in a line: Interaction between HCV and compounds (direct inactivation of HCV particles). It is filed as cell-based, hepatitis C virus. Particulars: 1 hr room temperature, Huh7.5, 72 hrs; for HCV inhibitory activity, Group 1 (treated HCV stock, no ultracentrifugation): SSO 10 μM or VX-950 0.5 μM, P < 0.01.
Series [6] deals with Influenza virus BV/Shenzhen/155/2005. The series can be described thus: microbe, parasite or virus in culture. The settings on record: unidentified influenza virus, MDCK.
Series [7] concerns Influenza virus A/Tianjin-Jinnan/15/2009. The series can be described thus: microbe, parasite or virus in culture. Particulars: unidentified influenza virus, MDCK.
For series [8], the system named is HCV. The experiment in a line: Inhibition of HCV entry (treatment before, during or after infection). Particulars: Huh7.5 cells. Type of series: cell-based, hepatitis C virus. An excerpt:
Then, the cells were washed and cultured with fresh medium. Intracellular HCV RNA and proteins were detected in 72 hrs.

For series [9], the system named is herpes simplex virus type 1 (HSV-1). The experiment in a line: Activity against HSV-1 in Vero cells. It is filed as cell-based. The settings on record: Human alphaherpesvirus 1; HSV-1, Vero.
For series [10], the system named is KM mice. The series can be described thus: Safety of SSO in vivo (single oral dose, KM mice). The settings on record: single oral dose up to 1000 mg/kg, day 7. An excerpt:
KM mice at a weight of 21.0 ± 1.0 g were from Laboratory Animal Center, Academy of Military Medical Sciences, Beijing, China. The mice were randomly divided into four groups with 10 mice in each (♂ × 5, ♀ × 5). […] Body weight as well as survival was monitored. Seven days later, blood samples were taken for liver and kidney function examination.

Series [11] has as its system Coxsackie B virus (CoxV-B1). The experiment in a line: microbe, parasite or virus in culture. The settings on record: Vero.
In series [12] the test system is HCV. The series can be described thus: Anti-HCV activity in HCV-infected Huh7.5 cells (intracellular HCV RNA, qRT-PCR). Type of series: cell-based, hepatitis C virus. Particulars: for EC50: Hepatitis C virus, read-out: half maximal effective concentration (EC50) against HCV at RNA level; for selective index (SI): Huh7.5 cells, cytotoxicity by MTT assay vs anti-HCV EC50, 72 hrs. In general terms: In qPCR the cycle at which signal appears reflects the starting amount.

Series [13] is described as follows: Cytotoxicity in MDCK cells. Type of series: cell-based. The settings on record: dog, Influenza virus A/Tianjin-Jinnan/15/2009 test.
In series [14] the test system is MDCK cells. The series can be described thus: Cytotoxicity in MDCK cells. Type of series: cell-based. Particulars: Influenza virus BV/Shenzhen/155/2005 test.
Series [15] concerns hepatitis B virus, influenza virus, herpes simplex virus and Coxsackie virus. The series can be described thus: Activity of CD36 inhibitors against other viruses. The settings on record: HepG2.2.15, MDCK and Vero cell cultures. Type of series: cell-based.
Series [16] deals with hepatitis B virus (HBV). The series can be described thus: Activity against HBV in HepG2.2.15 cells. Type of series: cell-based.
Series [17] has as its system HCV subgenomic replicon I 377-3′del.S in GS4.3 cells. The series can be described thus: HCV subgenomic replicon replication in GS4.3 cells. The settings on record: 72 hrs incubation, intracellular RNA; VX-950 at 1.0 μM. It is filed as cell-based, hepatitis C virus. As for the experimental part: Huh7.5 cells infected with HCV (45 IU/cell), or GS4.3 replicon cells were treated with different concentration of compounds. After 72 hrs, intracellular RNA was extracted with RNeasy Mini Kit; total intracellular proteins were extracted with PER. HCV RNA and proteins were analyzed with qRT-PCR and WB, respectively. Compound cytotoxicity in Huh7.5 cells or GS4.3 replicon cells were evaluated at 72 hrs with the tetrazolium (MTT, Amresco) assay.
Background: In antiviral work, replicon cells carry a viral genome segment that copies itself.

Series [18] has as its target T2, CD36 (Homo sapiens, UniProt P16671).
T2 construct: made in house; host or cells: 293T/17 cells
The series can be described thus: BIAcore surface plasmon resonance binding to CD36-HA. The settings on record: immobilised CD36-HA; SSO 50, 100, 200, 500 μM.

The subject of series [19] is HCV. The experiment in a line: Time-of-addition assay. Particulars: 10 nM bafilomycin A1, Huh7.5, HCV 300 IU/cell. Type of series: cell-based, hepatitis C virus. The protocol: Huh7.5 cells were infected with HCV (300 IU/cell) and incubated at 4 °C for 2 hrs, the cells were then washed with cold PBS and shifted to 37 °C (set as 0 hr time point) to initiate synchronous infection. […] Intracellular HCV RNA was detected after 72 hrs incubation. Inhibitory ratio was calculated as % relative to infectious control (0%). Fitted lines represent sigmoidal time-dependent curves.

Where two headings read alike, the source gives them in different places.

T2 sequence (P16671 whole entry): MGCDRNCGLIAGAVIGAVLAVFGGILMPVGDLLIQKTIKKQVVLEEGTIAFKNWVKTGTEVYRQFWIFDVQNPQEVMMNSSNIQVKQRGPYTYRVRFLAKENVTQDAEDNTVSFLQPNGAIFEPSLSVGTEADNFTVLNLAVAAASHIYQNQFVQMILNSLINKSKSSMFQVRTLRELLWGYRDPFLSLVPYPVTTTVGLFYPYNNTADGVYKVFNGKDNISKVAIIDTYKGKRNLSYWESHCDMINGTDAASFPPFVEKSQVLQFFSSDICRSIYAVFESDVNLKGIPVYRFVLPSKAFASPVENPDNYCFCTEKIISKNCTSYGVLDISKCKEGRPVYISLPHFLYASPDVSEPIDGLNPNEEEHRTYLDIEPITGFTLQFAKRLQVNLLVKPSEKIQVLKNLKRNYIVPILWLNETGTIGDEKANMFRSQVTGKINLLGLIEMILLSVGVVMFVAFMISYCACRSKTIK

`CCCCCCCC/C=C\CCCCCCCC(=O)ON1C(=O)CC(S(=O)(=O)O)C1=O` (centres unmarked) [SSO, sulfo-N-succinimidyl oleate]: the “anti-HCV activity of SSO in cells transfected with CD36 plasmid” value in series [1] is “decreased”. Further, in series [1], the “anti-HCV activity of SSO in cells transfected with siRNA for CD36” value is reported as “increased”. Further, the “direct binding to SR-BI (BIAcore)” value in series [2] is listed as “no binding on SR-BI”. Moreover, the 50% cytotoxic concentration (CC50) in series [3] (CoxV-B1 test) is 111 µM; in series [3] (HSV-1 test), greater than 200 µM; in [4], greater than 100 µM; in series [13] it was greater than 200 µM; in [14], greater than 200 µM. Further, in [5], the “HCV inhibitory activity, Group 1 (treated HCV stock, no ultracentrifugation)” value was “showed HCV inhibitory activity”. For the same compound, in [5] (SSO 10 μM, ultracentrifuged, P > 0.05), the “infectivity of treated virus, Group 2 (after ultracentrifugation)” value is “infectivity equal to that of untreated control”. Besides, the EC50 in series [6] is 200 µM; in series [7], 79 µM; in series [9], greater than 200 µM; in series [11], greater than 66.7 µM; in series [12] (Huh7.5, 72 h) it was 0.31 ± 0.09 µM; in series [16], greater than 100 µM. The “HCV replication, treatment after infection” value in series [8] (2 hrs treatment after infection, detected in 72 hrs, P > 0.05) is “no inhibitory effect”. Besides, the “HCV replication, treatment before and during HCV infection” value in series [8] (2 hrs treatment, HCV RNA and proteins in 72 hrs, P < 0.01) is “strongly inhibit HCV replication”. For the same compound, the “liver and kidney function: blood GOT, GPT, BUN and CRE” value in [10] was “abnormality was not detected”. Further, the “anti-HCV efficacy in combination with IFN-α” value in series [12] (SSO 1.0 μM + IFN-α 1.0 U/mL, HCV-infected Huh7.5 cells, 72 hrs, P < 0.05 vs IFN-α alone) was “enhanced anti-HCV efficacy”. Further, the “anti-HCV efficacy in combination with telaprevir (VX-950)” value in series [12] (SSO 1.0 μM + VX-950 0.1 μM, HCV-infected Huh7.5 cells, 72 hrs, P < 0.05 vs telaprevir alone) was “enhanced anti-HCV efficacy”. Moreover, the “inhibitory activity on hepatitis B virus, influenza virus, herpes simplex virus and Coxsackie virus” value in series [15] is “no inhibitory activity”. Besides, the “replication of the HCV replicon in GS4.3 cells” value in series [17] is recorded as “did not inhibit the replication”.

In the case of `CCC[C@H](NC(=O)[C@@H]1[C@H]2CCC[C@H]2CN1C(=O)[C@@H](NC(=O)[C@@H](NC(=O)c1cnccn1)C1CCCCC1)C(C)(C)C)C(=O)C(=O)NC1CC1` [VX-950, telaprevir], the “direct binding to CD36 (BIAcore)” value in [18] was “did not bind onto CD36”. Moreover, the “direct binding to SR-BI (BIAcore)” value in series [2] is on record as “no binding on SR-BI”. Besides, the “HCV inhibitory activity, Group 1 (treated HCV stock, no ultracentrifugation)” value in series [5] is “showed HCV inhibitory activity”. Further, the “replication of the HCV replicon in GS4.3 cells” value in [17] was “strong inhibitory effect”.

Take `COc1cc(O)c(/C=N/NC(=O)c2cc3ccccc3s2)c(OC)c1` [AP5055]: the EC50 in series [12] (Huh7.5 cells infected with HCV (45 IU/cell), 72 hrs, intracellular HCV RNA) was 0.39 ± 0.16 µM. In addition, the “selective index (SI)” value in [12] was determined as 25.

For `COc1ccc2cc[n+](CCc3ccccc3)cc2c1O` [W-9], the EC50 in series [12] (Huh7.5, 72 h) stood at 6.61 ± 3.18 µM. For the same compound, the “selective index (SI)” value in series [12] is listed as 20.

On to `CO/C1=C\C(C)=C\[C@@H](C)[C@@H](O)[C@@H](C)C/C(C)=C/C=C/[C@H](OC)[C@@H]([C@@H](C)[C@@H](O)[C@H](C)[C@@]2(O)C[C@@H](O)[C@H](C)[C@@H](C(C)C)O2)OC1=O` [bafilomycin A1], for which the “time HCV remained sensitive to the inhibitor after shift to 37 °C” value in series [19] came to 3 h.

One may read the CC50 as the concentration that lowers cell viability or growth by half.

The values are drawn from article PMC4761891, “CD36 is a co-receptor for hepatitis C virus E1 protein attachment” (Scientific Reports, 2016).
